Patent publication US20250353873A1, “COMPOUNDS AND METHODS FOR MODULATING APOE EXPRESSION” (Ionis Pharmaceuticals, Inc., priority 2024, published 2025)
Values joined by “and” are separate entries in the source; they are usually repeats but may differ in a detail not shown here. Equal values may be shown once. Strand notation (5' to 3'): a small letter for the sugar, then the base; units joined by * are phosphorothioate-linked, units joined directly phosphodiester-linked; [ ] holds rarer units or linkages, { } end groups; capitals alone tell only the bases. [ms] = mesyl phosphoramidate linkage; e = 2'-O-(2-methoxyethyl) (MOE); k = constrained ethyl (cEt); [5mC] = 5-methylcytosine; d = 2'-deoxy (DNA)

Legend:
[1] = system: human APOE RNA; test: Dose-dependent inhibition of human APOE RNA in differentiated SH-SY5Y cells, free uptake, 5 days (Example 5); format: cell-based; settings: 5 days (Table 14)
Protocol: Modified oligonucleotides selected from the examples above were tested at various doses in differentiated SH-SY5Y cells. The modified oligonucleotides were tested in a series of experiments that had the same culture conditions.
Differentiated SH-SY5Y cells plated at a density of 10,000 cells per well were treated by free uptake with various concentrations of modified oligonucleotide as specified in the tables below. […] APOE RNA levels were measured using the human primer probe set RTS3073 (described herein above). APOE RNA levels were normalized to human PPIA. Human PPIA was amplified using human primer probe set mk_cycloA_2nd (described herein above). Results are presented as percent APOE RNA, relative to the amount of APOE RNA in untreated control cells (% UTC). The half maximal inhibitory concentration (IC50) of each modified oligonucleotide was calculated in GraphPad Prism 10 (GraphPad Software, San Diego, CA) and is also presented in the tables below.

[2] = system: human APOE RNA; test: Duration of action study in APOE C57BL/6NTac-Apoeem7250 knock-in mice (Example 16); format: in vivo; settings: 300 μg ICV
Summary of the method: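 Knock-in mice (2-4 per group) received a single ICV bolus of 300 μg oligonucleotide or PBS. At various timepoints, cortex and spinal cord human APOE RNA was measured by RT-qPCR (RTS3073), normalized to mouse Ppia and expressed as % of PBS control.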

[3] = system: human APOE RNA; test: Activity in APOE C57BL/6NTac-Apoeem7250 knock-in mice, single ICV bolus, 8 weeks (Example 11); format: in vivo; settings: single ICV bolus 300 μg, 8 weeks post treatment, normalized to mouse Ppia
Summary of the method: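 Human APOE knock-in C57BL/6NTac mice given one ICV bolus of 300 μg oligonucleotide; PBS-dosed group as control. At 8 weeks, cortex and spinal cord RNA measured by qRT-PCR (human probe RTS3073), normalized to mouse Ppia, expressed as % of PBS control.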

[4] = system: human APOE RNA; test: Dose-dependent inhibition of human APOE RNA in HepG2 cells, electroporation, 50,000 cells per well, RT-PCR normalized to GAPDH (Example 4, Tables 8-10); format: cell-based
Summary of the method: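 HepG2 cells, 50,000 per well, electroporated with modified oligonucleotide at various concentrations. APOE RNA quantified by RT-PCR with human primer probe set RTS3073, normalized to GAPDH. Values are percent APOE RNA relative to untreated control cells.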

[5] = system: human APOE RNA; test: Activity in APOE C57BL/6NTac-Apoeem7250 knock-in mice, single ICV bolus, 4 weeks (Example 10); format: in vivo; settings: single ICV bolus 300 μg, 4 weeks post treatment, normalized to mouse Ppia
Summary of the method: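 Knock-in mice (2–4 per group) received one 300 μg ICV bolus of oligonucleotide or PBS. After four weeks, human APOE RNA in cortex and spinal cord measured by RT-qPCR (primer probe set RTS3073), normalized to mouse Ppia, expressed as % of PBS controls.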

[6] = system: human APOE RNA; test: Potency (dose response, ED50) in APOE C57BL/6NTac-Apoeem7250 knock-in mice, 4 weeks (Example 14); format: in vivo
Protocol: Modified oligonucleotides described above were tested in the APOE C57BL/6NTac-Apoeem7250 knock-in mouse model described above.
APOE C57BL/6NTac-Apoeem7250 knock-in mice were divided into groups of 3-4 mice each. A group of 3-4 mice received a single ICV bolus with PBS as a negative control.
Four weeks post treatment, mice were sacrificed, and RNA was extracted from cortical brain tissue and spinal cord for quantitative real-time RT-PCR analysis of RNA expression of […] using human primer probe set RTS3073 (described herein above). APOE RNA levels were normalized to mouse Ppia. Mouse Ppia was amplified using primer probe set m_cyclo24 (described herein above). Results are presented as percent human APOE RNA relative to the amount of APOE RNA in PBS treated animals, (% control). N.C. indicates values that were not calculated. Each experiment is identified in separate tables below.
The half maximal effective dose (ED50) of each modified oligonucleotide was calculated using GraphPad Prism 10 software (GraphPad Software, San Diego, CA).

[7] = system: human APOE RNA; test: Activity in APOE C57BL/6NTac-Apoeem7250 knock-in mice, single ICV bolus, 16 weeks (Example 12); format: in vivo; settings: single ICV bolus 300 μg, 16 weeks post treatment, normalized to mouse Ppia
Summary of the method: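 Knock-in mice (3-4 per group) received one ICV bolus of 300 μg oligonucleotide, PBS as control. After 16 weeks, human APOE RNA in cortex and spinal cord measured by RT-qPCR, normalized to mouse Ppia, and reported as % of PBS control.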

[8] = system: human APOE RNA; test: Activity in APOE C57BL/6NTac-Apoeem7250 knock-in mice, single ICV bolus, 20 weeks (Example 13); format: in vivo; settings: single ICV bolus 300 μg, 20 weeks post treatment, normalized to mouse Ppia
Summary of the method: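 Knock-in mice (n=4) given a single ICV bolus of 300 μg oligonucleotide, PBS as control. After 20 weeks, human APOE RNA in cortex and spinal cord measured by RT-qPCR, normalized to mouse Ppia, expressed as % of PBS-treated animals.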

## 1746804 (k[5mC]*kT*kT*dG[ms]dG[ms]dT[ms]dG[ms]dA[ms]dA[ms]dT*d[5mC]*dT*dT*dT*dA[ms]dT*dT[ms]kA*kA*kA; antisense) [Compound 1746804]
[1]; 5 nM
  APOE RNA (% UTC): 114 % UTC
[1]; 13 nM
  APOE RNA (% UTC): 117 % UTC
[1]; 33 nM
  APOE RNA (% UTC): 120 % UTC
[1]; 82 nM
  APOE RNA (% UTC): 97 % UTC
[1]; 205 nM
  APOE RNA (% UTC): 84 % UTC
[1]; 512 nM
  APOE RNA (% UTC): 82 % UTC
[1]; 1,280 nM
  APOE RNA (% UTC): 61 % UTC
[1]; 3,200 nM
  APOE RNA (% UTC): 48 % UTC
[1]; 8,000 nM
  APOE RNA (% UTC): 32 % UTC
[1]; 20,000 nM
  APOE RNA (% UTC): 18 % UTC
[1]
  IC50: 2.83 µM
[2]; 112 days post-dose
  APOE RNA (% control) Cortex: 37 % control
  APOE RNA (% control) Spinal Cord: 205 % control
[2]; 140 days post-dose
  APOE RNA (% control) Cortex: 60 % control
  APOE RNA (% control) Spinal Cord: 207 % control
[3]
  APOE RNA (% control) Cortex: 40 % control
  APOE RNA (% control) Spinal Cord: 25 % control
[4]; 5 nM, HepG2, electroporation, 24-hour treatment
  APOE RNA (% UTC): 89 % UTC
[4]; 13 nM, HepG2, electroporation, 24-hour treatment
  APOE RNA (% UTC): 88 % UTC
[4]; 33 nM, HepG2, electroporation, 24-hour treatment
  APOE RNA (% UTC): 80 % UTC
[4]; 82 nM, HepG2, electroporation, 24-hour treatment
  APOE RNA (% UTC): 81 % UTC
[4]; 205 nM, HepG2, electroporation, 24-hour treatment
  APOE RNA (% UTC): 66 % UTC
[4]; 512 nM, HepG2, electroporation, 24-hour treatment
  APOE RNA (% UTC): 57 % UTC
[4]; 1,280 nM, HepG2, electroporation, 24-hour treatment
  APOE RNA (% UTC): 45 % UTC
[4]; 3,200 nM, HepG2, electroporation, 24-hour treatment
  APOE RNA (% UTC): 40 % UTC
[4]; 8,000 nM, HepG2, electroporation, 24-hour treatment
  APOE RNA (% UTC): 4 % UTC
[4]; 20,000 nM, HepG2, electroporation, 24-hour treatment
  APOE RNA (% UTC): 2 % UTC
[4]; HepG2, electroporation, 24-hour treatment
  IC50: 0.68 µM
[5]
  APOE RNA (% control) Cortex: 51 % control and 46 % control
  APOE RNA (% control) Spinal Cord: 52 % control and 40 % control

## 1778154: modified oligonucleotide complementary to human APOE RNA (e[5mC]*eT*eTeGeGeT*dG[ms]dA[ms]dA*dT*d[5mC]*dT*dT*dT*dA*dT*kTkAeA*eA; antisense) [compound 1778154]
[6]; cortex, ICV dose 10 μg
  APOE RNA (% control) Cortex: 89 % control
[6]; cortex, ICV dose 30 μg
  APOE RNA (% control) Cortex: 89 % control
[6]; cortex, ICV dose 100 μg
  APOE RNA (% control) Cortex: 70 % control
[6]; cortex, ICV dose 300 μg
  APOE RNA (% control) Cortex: 56 % control
[6]; cortex, ICV dose 700 μg
  APOE RNA (% control) Cortex: 27 % control
[6]; cortex, single ICV bolus, GraphPad Prism 10
  ED 50 (μg) Cortex: 279.4 µg
[6]; spinal cord, ICV dose 10 μg
  APOE RNA (% control) Spinal Cord: 105 % control
[6]; spinal cord, ICV dose 30 μg
  APOE RNA (% control) Spinal Cord: 137 % control
[6]; spinal cord, ICV dose 100 μg
  APOE RNA (% control) Spinal Cord: 38 % control
[6]; spinal cord, ICV dose 300 μg
  APOE RNA (% control) Spinal Cord: 43 % control
[6]; spinal cord, ICV dose 700 μg
  APOE RNA (% control) Spinal Cord: 47 % control
[6]; spinal cord, single ICV bolus, GraphPad Prism 10
  ED 50 (μg) Spinal Cord: 243.1 µg
[7]; cortex
  APOE RNA (% control) Cortex: 50 % control
[7]; spinal cord
  APOE RNA (% control) Spinal Cord: 29 % control
[3]
  APOE RNA (% control) Cortex: 29 % control
  APOE RNA (% control) Spinal Cord: 32 % control
[8]; cortex
  APOE RNA (% control) Cortex: 82 % control
[8]; spinal cord
  APOE RNA (% control) Spinal Cord: 46 % control
[4]; HepG2 cells, electroporation, 24-hour treatment, 5 nM, Table 8
  APOE RNA (% UTC) 5 nM: 101 % UTC
[4]; HepG2 cells, electroporation, 24-hour treatment, 13 nM, Table 8
  APOE RNA (% UTC) 13 nM: 97 % UTC
[4]; HepG2 cells, electroporation, 24-hour treatment, 33 nM, Table 8
  APOE RNA (% UTC) 33 nM: 91 % UTC
[4]; HepG2 cells, electroporation, 24-hour treatment, 82 nM, Table 8
  APOE RNA (% UTC) 82 nM: 98 % UTC
[4]; HepG2 cells, electroporation, 24-hour treatment, 205 nM, Table 8
  APOE RNA (% UTC) 205 nM: 76 % UTC
[4]; HepG2 cells, electroporation, 24-hour treatment, 512 nM, Table 8
  APOE RNA (% UTC) 512 nM: 58 % UTC
[4]; HepG2 cells, electroporation, 24-hour treatment, 1,280 nM, Table 8
  APOE RNA (% UTC) 1,280 nM: 47 % UTC
[4]; HepG2 cells, electroporation, 24-hour treatment, 3,200 nM, Table 8
  APOE RNA (% UTC) 3,200 nM: 22 % UTC
[4]; HepG2 cells, electroporation, 24-hour treatment, 8,000 nM, Table 8
  APOE RNA (% UTC) 8,000 nM: 35 % UTC
[4]; HepG2 cells, electroporation, 24-hour treatment, 20,000 nM, Table 8
  APOE RNA (% UTC) 20,000 nM: 8 % UTC
[4]; reduction of human APOE RNA, HepG2 cells, electroporation, 24-hour treatment, Table 8
  IC50: 1.08 µM
[5]
  APOE RNA (% control) Cortex: 30 % control
  APOE RNA (% control) Spinal Cord: 44 % control
